Some results are limits rather than exact numbers.

For the test, the system named is Mouse bone marrow-derived mesenchymal cell line ST2 cells. The test is described as follows: Osteoblast differentiation test (alkaline phosphatase activity). Particulars: ST-2, 96 h, at 0.1 μg/mL, 4 days of culture, absorbance at 405 nm, DMSO control = 100%, read-out: alkaline phosphatase activity (increase rate in absorbance, control as 100%). It counts as cell-based. How it is done:
Mouse bone marrow-derived mesenchymal cell line ST2 cells (source of supply: RIKEN) were seeded in α-MEM medium containing 10% fetal bovine serum (source of supply: GIBCO BRL Cat. No. 12000-022) in a 96 well plate at a cell density of 4×10^3 cells/0.1 mL/well, and cultured for 24 hr under the conditions of 37° C., 5% CO2. Then, each test compound was added at a final concentration of 0.001-10 μM, and the final concentration 0.1% (v/v) of DMSO was added to the control. After 4 days of culture, alkaline phosphatase (ALP) activity was measured by the following method.
The medium in the cultured 96 well plate was removed, the cells were washed with PBS buffer (KCl 0.2 g/L, KH2PO4 0.2 g/L, Na2HPO4.12H2O 2.9 g/L, NaCl 8 g/L) (100 μL/well), cell lysate (10 mM MgCl2, 2% (v/v) Triton X-100) (50 μL/well) was added, and the mixture was stirred at room temperature for 3 min. A substrate solution (50 mM diethanolamine (Wako Pure Chemical Industries, Ltd. Cat. No. 099-03112), 20 mM […] (Nacalai Tesque Cat. No. 25019-81)) (50 μL/well) was added, and the mixture was left standing at room temperature for 9 min. 1N NaOH 50 μL/well was added to discontinue the reaction, and the absorbance at 405 nm was measured by a microplate reader (Dainippon Pharmaceutical Co., Ltd.)
An increase rate (%) in the absorbance by the test compound was calculated based on the absorbance of the control as 100%, and the differentiation degree of the osteoblast was evaluated.
For `COc1cc(Nc2ccc(N3CC(OCCO)C3)cc2)c([N+](=O)[O-])cc1F` [Example 2, 2-{1-[4-(4-fluoro-5-methoxy-2-nitrophenylamino)phenyl]azetidin-3-yloxy}ethanol], the activity at 0.1 µg/mL is at least 200%.
As for `NC(=O)c1ccc([N+](=O)[O-])c(Nc2ccc(N3CC(OCCO)C3)cc2)c1` [Example 5, 3-{4-[3-(2-hydroxyethoxy)azetidin-1-yl]phenylamino}-4-nitrobenzamide], the figure is at least 200%; as for `CC(=O)c1ccc(C(N)=O)cc1Nc1ccc(N2CC(OCCO)C2)cc1` [Example 6, 4-acetyl-3-{4-[3-(2-hydroxyethoxy)azetidin-1-yl]phenylamino}benzamide], at least 200%.
As for `COc1cc(Nc2ccc(N3CC(N4CCC(CO)CC4)C3)cc2)c(NC(C)=O)cn1` [Example 8, N-(4-{4-[3-(4-hydroxymethylpiperidin-1-yl)azetidin-1-yl]phenylamino}-6-methoxypyridin-3-yl)acetamide], the figure is at least 200%.
As for `COc1cc(Nc2ccc(N3CC(N4CCOCC4)C3)cc2)c(NC(C)=O)cn1` [Example 9, N-{6-methoxy-4-[4-(3-morpholin-4-ylazetidin-1-yl)phenylamino]pyridin-3-yl}acetamide], the figure is at least 200%; as for `COc1cc(Nc2ccc(N3CCN(CC(C)(C)C(=O)O)CC3)cc2)c([N+](=O)[O-])cc1F` [Example 13, 3-{4-[4-(4-fluoro-5-methoxy-2-nitrophenylamino)phenyl]piperazin-1-yl}-2,2-dimethylpropionic acid], at least 200%.
`COc1cc(Nc2ccc(N3CC(OCCNS(N)(=O)=O)C3)cc2)c(NC(C)=O)cn1` [Example 16, N-(4-{4-[3-(2-sulfamoylaminoethoxy)azetidin-1-yl]phenylamino}-6-methoxypyridin-3-yl)acetamide]: the activity at 0.1 µg/mL is at least 200%.
As for `CC(=O)c1ccc(C(N)=O)cc1Nc1ccc(OCCOC2CCOCC2)cc1` [Example 17, 4-acetyl-3-{4-[2-(tetrahydropyran-4-yloxy)ethoxy]phenylamino}benzamide], the figure is at least 200%; as for `CC(F)(F)c1ccc(C(N)=O)cc1Nc1ccc(OCCOC2CCOCC2)cc1` [Example 18, 4-(1,1-difluoroethyl)-3-{4-[2-(tetrahydropyran-4-yloxy)ethoxy]phenylamino}benzamide], at least 200%.
Consider `CC(=O)c1ccc(C(N)=O)cc1Nc1ccc(OCCOC2CCS(=O)(=O)CC2)cc1` [Example 20, 4-acetyl-3-{4-[2-(1,1-dioxohexahydro-1λ^6-thiopyran-4-yloxy)ethoxy]phenylamino}benzamide], for which the activity at 0.1 µg/mL was at least 200%.
Regarding `CC(=O)c1ccc(C(N)=O)cc1Oc1ccc(N2CC(OCCO)C2)cc1` [Example 28, 4-acetyl-3-{4-[3-(2-hydroxyethoxy)azetidin-1-yl]phenoxy}benzamide], the activity at 0.1 µg/mL is at least 200%.
As for `CC(=O)c1ccc(C(N)=O)c(Oc2ccc(N3CC(OCCO)C3)cc2)c1` [Example 29, 4-acetyl-2-{4-[3-(2-hydroxyethoxy)azetidin-1-yl]phenoxy}benzamide], the figure is at least 200%; as for `CC(=O)c1ccc(C(N)=O)cc1Oc1ccc(N2CCC(OCCO)CC2)cc1` [Example 30, 4-acetyl-3-{4-[4-(2-hydroxyethoxy)piperidin-1-yl]phenoxy}benzamide], at least 200%; as for `CC(=O)c1ccc(C(N)=O)cc1Oc1ccc(OCCOCCOC(C)C)cc1` [Example 33, 4-acetyl-3-{4-[2-(2-isopropoxyethoxy)ethoxy]phenoxy}benzamide], at least 200%.
For the compound `CC(=O)c1ccc(C(N)=O)cc1Oc1ccc(/C=C/COC2CCOCC2)cc1` [Example 34, 4-acetyl-3-{4-[3-(tetrahydropyran-4-yloxy)propenyl]phenoxy}benzamide], the activity at 0.1 µg/mL was at least 200%.
As for `NC(=O)c1ccc(C(F)F)c(Oc2ccc(OCCOC3CCOCC3)cc2)c1` [Example 35, 4-difluoromethyl-3-{4-[2-(tetrahydropyran-4-yloxy)ethoxy]phenoxy}benzamide], the figure is at least 200%.
For the compound `CC(F)c1ccc(C(N)=O)cc1Oc1ccc(OCCOC2CCOCC2)cc1` (stereo not drawn) [Example 39, 4-(1-fluoroethyl)-3-{4-[2-(tetrahydropyran-4-yloxy)ethoxy]phenoxy}benzamide], the activity at 0.1 µg/mL was at least 200%.
In the case of `CC(=O)c1ccc(C(N)=O)cc1Oc1ccc(COCCOC(C)C)cc1` [Example 40, 4-acetyl-3-[4-(2-isopropoxyethoxymethyl)phenoxy]benzamide], the activity at 0.1 µg/mL was at least 200%.
As for `CC(=O)c1ccc(C(N)=O)cc1Oc1ccc(COC2CCOCC2)cc1` [Example 41, 4-acetyl-3-[4-(tetrahydropyran-4-yloxymethyl)phenoxy]benzamide], the figure is at least 200%; as for `CCC(=O)Nc1cnc(OC)cc1Nc1ccc(N2CC(OCCO)C2)cc1` [Example 45], at least 200%; as for `NC(=O)c1ccc(C(F)(F)F)c(Nc2ccc(N3CC(OCCO)C3)cc2)c1` [Example 47], at least 200%.
As for `CNC(=O)c1ccc([N+](=O)[O-])c(Nc2ccc(N3CC(OCCO)C3)cc2)c1` [Example 48], the figure is at least 200%; as for `NC(=O)c1ccc([N+](=O)[O-])c(Nc2ccc(OCCOC3CCOCC3)cc2)c1` [Example 50], at least 200%; as for `CC(=O)c1ccc(C(N)=O)cc1Nc1ccc(OCCOC2CCOC2)cc1` (stereo not drawn) [Example 53], at least 200%.
As for `CC(=O)c1ccc(C(N)=O)c(Nc2ccc(OCCOC3CCOCC3)cc2)c1` [Example 57], the figure is at least 200%; as for `CC(=O)c1ccc(C(N)=O)c(Nc2ccc(OCCOC3CCS(=O)(=O)CC3)cc2)c1` [Example 58], at least 200%; as for `NC(=O)c1ccc(C(F)(F)F)c(Oc2ccc(N3CC(OCCO)C3)cc2)c1` [Example 62], at least 200%.
As to `NC(=O)c1ccc([N+](=O)[O-])c(Oc2ccc(N3CCC(OCCO)CC3)cc2)c1` [Example 63], the activity at 0.1 µg/mL is at least 200%.
As for `NC(=O)c1ccc(C(F)(F)F)c(Oc2ccc(OCCOC3CCOCC3)cc2)c1` [Example 64], the figure is at least 200%; as for `CC(C)OCCOCCOc1ccc(Oc2cc(C(N)=O)ccc2C(F)(F)F)cc1` [Example 65], at least 200%; as for `CC(=O)c1ccc(C(N)=O)cc1Oc1ccc(CCCOC2CCOCC2)cc1` [Example 66], at least 200%.
As for `CC(=O)c1ccc(C(N)=O)c(Oc2ccc(OCCOC3CCOCC3)cc2)c1` [Example 70], the figure is at least 200%; as for `CC(F)(F)c1ccc(C(N)=O)cc1Oc1ccc(OCCOC2CCOCC2)cc1` [Example 74], at least 200%; as for `NC(=O)c1ccc(C(F)(F)F)c(Oc2ccc(COC3CCOCC3)cc2)c1` [Example 82], at least 200%.
As for `NC(=O)c1ccc(C(F)F)c(Oc2ccc(COC3CCOCC3)cc2)c1` [Example 83], the figure is at least 200%.
`C[C@@H](O)c1ccc(C(N)=O)cc1Oc1ccc(N2CC(OCCO)C2)cc1` [Example 85]: the activity at 0.1 µg/mL was at least 200%.
As for `COc1cc(Nc2ccc(N3CC(O)C3)cc2)c(NC(C)=O)cn1` [Example 88], the figure is at least 200%.
As for `COc1cc(Nc2ccc(N3CC(OCC4CCCO4)C3)cc2)c(NC(C)=O)cn1` (stereo not drawn) [Example 89], the figure is at least 200%; as for `NC(=O)c1ccc([N+](=O)[O-])c(Nc2ccc(N3CC(OCC4CCCO4)C3)cc2)c1` (stereo not drawn) [Example 90], at least 200%; as for `CC(=O)Nc1ccc(C(N)=O)cc1Nc1ccc(N2CC(OCC3CCCO3)C2)cc1` (stereo not drawn) [Example 91], at least 200%.
As for `CC(=O)c1ccc(C(N)=O)cc1Nc1ccc(N2CC(OCC3CCCO3)C2)cc1` (stereo not drawn) [Example 92], the figure is at least 200%; as for `C[C@@H](O)c1ccc(C(N)=O)cc1Oc1ccc(N2CC(CO)C2)cc1` [Example 94], at least 200%.
With `CC(=O)c1ccc(C(N)=O)cc1Oc1ccc(N2CC(CO)C2)cc1` [Example 95], the activity at 0.1 µg/mL is at least 200%.
On to `CC(=O)c1ccc(C(N)=O)cc1Oc1ccc(N2CC(O)C2)cc1` [Example 96], for which the activity at 0.1 µg/mL was at least 200%.
As for `CC(=O)c1ccc(C(N)=O)cc1Oc1ccc(N2CCC2)cc1` [Example 97], the figure is at least 200%.

(Values after patent US10059663B2, “Aromatic compound and use thereof” (Kyoto Pharmaceutical Industries, Ltd., priority 2013, dated 2018).)
